Residues, ends and D or L forms follow the SMILES beside them. *: point of attachment. X1 = O=C1CCC[C@@H](C(=O)*)N1
Tested on: cytoblastic medulla cells
Assay: 51Cr-emission test (in vitro toxicity)
Format: cell-based, rat
Procedure: The in vitro toxicity of the new compound was examined by ^51 Cr emission test.
6×10^7 cytoblastic medulla cells to be labelled were centrifuged (1000 rotations/minute for 7 minutes), then the cells were suspended in 1 ml of TC-199 Parker medium (product of OKI) and incubated with ^51 Cr ray source of an activity of 3.7×10^7 Bq (1 mCi) at a temperature of 37° C. for 1 hour, then the labelled cells were washed with 60 ml of medium. When the evaluation was carried out, the cell suspension was centrifuged after the treatment with the oligopeptide and the radioactivity of the supernatant was measured.
When the ^51 Cr emission test was evaluated, the cell suspension was treated with the oligopeptide and centrifuged, then the activity of the supernatant was determined by a Packard apparatus.

Compound: O=C(O)CC[C@H](NC(=O)[C@@H]1CCCC(=O)N1)C(=O)N[C@@H](CC(=O)O)C(=O)N[C@@H](CO)C(=O)NCC(=O)O [pAad-EI, Xaa Glu Asp Ser Gly] (X1-EDSG-OH)
- 51Cr-emission of cytoblastic medulla cells, cpm (concentration = 10^-8 mole/l, control 155,849): 148,303 cpm
- toxicity by 51Cr emission (in words) (isotope emission compared to the control): not toxic
